The METLIN SMRT retention time set (Domingo-Almenara et al. 2019)

Test: gradient 5% acetonitrile 3 min, to 50% in 2 min, to 85% in 15 min, held 3 min, 100 µL/min
Details: column: Zorbax Extend-C18 2.1 x 50 mm; eluents: water / acetonitrile, 0.1% formic acid
Outline: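 Over 3 months, pure standards in mixtures of ~100 molecules were run by HPLC coupled to a quadrupole time-of-flight mass spectrometer in positive and negative ionization mode. The column was a Zorbax Extend-C18 (2.1 × 50 mm, 1.8 μm) at 100 μL/min, eluted with water and acetonitrile each holding 0.1% formic acid, with 40 μL dead and 900 μL dwell volumes. Retention time was determined from adduct peaks chosen by software and checked manually.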
In the case of `CCCNC(=O)C1CCN(c2ccc(SCC(=O)NCc3ccc(F)cc3)nn2)CC1`, the RP-LC retention time is reported as 667 s. For `CC(=O)c1cccc(NC(=O)COc2cc(C)nc(N3CCCC3)n2)c1`, the RP-LC retention time was 616 s. `CCc1ccc(N2C=C(C(=O)N3CCOCC3)S(=O)(=O)c3ccc(F)cc32)cc1` showed an RP-LC retention time of 873 s. For `Cc1ccccc1-c1nc(-c2ccc3c(c2)oc(=O)n3C)no1`, the RP-LC retention time was 1110 s. In the case of `O=C(Cc1cn2cc(Br)ccc2n1)Nc1ccc2c(c1)OCCO2`, the RP-LC retention time is reported as 608 s. For `Cc1ccc(C)c(NC(=O)Cn2nc3c(Oc4ccc(C(C)C)cc4)nccn3c2=O)c1`, the RP-LC retention time was 1080 s. Molecule `Cc1ccc(-c2noc(Cn3c(=O)n(-c4ccccc4F)c(=O)c4sccc43)n2)cc1C` has an RP-LC retention time of 1090 s. With `COc1ccc(OC)c(S(=O)(=O)N2CCCC(C(=O)NC3CC3)C2)c1` (centres undefined) the RP-LC retention time was 710 s. Work on `CCOC(=O)Nc1ccc2c(c1)N(CCC(C)C)C(=O)C(C)(C)CO2` yielded an RP-LC retention time of 1070 s. `CSc1ncc(C(=O)N2CCN(c3ccccn3)CC2)c(-c2ccccc2)n1` gave an RP-LC retention time of 837 s. With `Oc1cccc(-c2nc3cnccn3c2Nc2ccc(Br)cc2)c1` the RP-LC retention time was 1020 s. For `Cc1ccc(CNC(=O)c2ccc(NC(=O)C3CCC3)cc2N2CCOCC2)o1`, the RP-LC retention time was 818 s. Work on `CCOCCCNS(=O)(=O)c1cccc(-c2nc(-c3ccc(C)cc3)no2)c1` yielded an RP-LC retention time of 1160 s. With `COc1ccc(-c2noc(C3CCCN3C(=O)c3ccco3)n2)cc1` (centres undefined) the RP-LC retention time was 809 s. In the case of `NS(=O)(=O)c1ccc2nc(NC(=O)COc3ccc(Cl)cc3)sc2c1`, the RP-LC retention time is reported as 766 s. In the case of `CCCCNC(=O)C1c2cc(OC)c(OC)cc2C(=O)N(C)C1c1ccc(OC)c(OC)c1` (centres undefined), the RP-LC retention time is reported as 710 s. Work on `CCCn1ccc2oc(C)c(C(=O)N3CCN(CC(C)C)CC3)c2c1=O` yielded an RP-LC retention time of 575 s. Work on `O=C(C1CCN(S(=O)(=O)c2cc(-c3noc(C4CCC4)n3)cs2)CC1)N1CCCCC1` yielded an RP-LC retention time of 971 s. Molecule `COc1ccc(CCCOC(Cn2ccnc2)c2ccc(OC)cc2)cc1` (centres undefined) has an RP-LC retention time of 785 s. `Cc1cc(C(=O)N2CCC(c3noc(-c4ccncc4)n3)C2)nn1C` (centres undefined) gave an RP-LC retention time of 661 s. Molecule `O=C(Nc1nc(-c2ccccc2)cs1)c1ccc(COc2ccc(Cl)cc2Cl)o1` has an RP-LC retention time of 1280 s. Molecule `CC(C)CCNC(=O)CCSC1CCc2ccccc2NC1=O` (centres undefined) has an RP-LC retention time of 777 s. `COc1nc(-c2ccc3c(c2)OCO3)n(-c2ccc(NC(=O)CSc3ccccc3)cc2)n1` gave an RP-LC retention time of 894 s. In the case of `C=CCc1c(C)c(C#N)c2nc3ccccc3n2c1NCCOCCO`, the RP-LC retention time is reported as 589 s. For `COc1cc(OC)c(NC(=O)C2CCCN(C(=O)c3cc(C)cc(C)c3)C2)cc1Cl` (centres undefined), the RP-LC retention time was 1010 s. Work on `Cc1ccc(N2C(=O)C3N=NN(Cc4nc(-c5ccc(Br)cc5)no4)C3C2=O)cc1` (centres undefined) yielded an RP-LC retention time of 1070 s. With `CC(=O)N1CCC(C(=O)N2CCC3(CC2)NCc2ccccc2-n2ccnc23)CC1` the RP-LC retention time was 564 s. Work on `O=C(Nc1cccc(-c2nnc3n2CCCC3)c1)C1CCCCC1` yielded an RP-LC retention time of 699 s. For `CCOC(=O)c1c(C)[nH]c(C(=O)N2CCC(CC(=O)NCc3ccc(F)cc3)CC2)c1C`, the RP-LC retention time was 780 s. Molecule `CCN1C(=O)C(CC(=O)NC(C)c2ccccc2)Sc2ncccc21` (centres undefined) has an RP-LC retention time of 751 s. Work on `COc1ccc(N2C=C(C#N)S(=O)(=O)c3ccc(F)cc32)cc1Cl` yielded an RP-LC retention time of 948 s. `COc1ccc(NC(=O)C2CCCCC2)c2ccccc12` gave an RP-LC retention time of 861 s. For `CCn1cnc(S(=O)(=O)N2CCC(C(=O)Nc3cccc(Cl)c3)CC2)c1`, the RP-LC retention time was 695 s. For `COc1ccc(NC(=O)N2CCC(C(=O)NCc3csc(-c4ccccc4)n3)CC2)c(OC)c1`, the RP-LC retention time was 777 s. With `O=C(CSc1nnc2sc3ccccc3n12)N1CCOCC1` the RP-LC retention time was 614 s. With `CCOc1ccc(NC(=O)c2oc3ccccc3c2C)c2cccnc12` the RP-LC retention time was 698 s. With `Cc1ccc(-c2nnc(Cc3nc(-c4cccc(C(F)(F)F)c4)no3)o2)cc1` the RP-LC retention time was 1160 s. In the case of `CCc1nnc(-c2cn(CC(=O)Nc3cc(Cl)c(OC)cc3OC)c3ccccc23)o1`, the RP-LC retention time is reported as 916 s. With `COc1ccccc1NC(=O)Cn1c(C)nc2c(sc3nc(-c4ccccc4)ccc32)c1=O` the RP-LC retention time was 1090 s. Work on `Cn1cc(-c2nc(C(=O)N3CCc4ccccc43)cs2)c2cccnc21` yielded an RP-LC retention time of 1010 s. `COc1cccc(CNC(=O)C2CCN(C(=O)C3Sc4ccccc4NC3=O)CC2)c1` (centres undefined) showed an RP-LC retention time of 725 s. `CCOC(=O)c1csc(-n2nc(C(F)(F)F)cc2-c2ccc(OC)cc2)n1` gave an RP-LC retention time of 1280 s. Molecule `COc1ccc2[nH]cc(CN3CCC([C@H]4[C@@H](OC)C(=O)N4C(C)C)CC3)c2c1` has an RP-LC retention time of 623 s. `CCn1nc(C)cc1C(=O)N1CCNC(=O)C1(C)C` gave an RP-LC retention time of 568 s.
